Laboratory results as given in patent publication EP0008269A1, “Medicines containing as active ingredients compounds of the benzene-sulfone type; compounds of this type and process for their preparation” (CHOAY S.A., priority 1978, dated 1980).

Columns and labels:
[1] = tested on: cellules de la Lignée L.1210; experiment: Cytostatic activity: growth inhibition of L.1210 cells; assay type: cell-based; conditions: L.1210 cells in culture
Description: Cette activité est étudiée en mesurant le pouvoir d'in- hibition de la croissance de cellules de la Lignée L.1210 cultivée sur un milieu approprié.
Ce pouvoir est exprimé en poids de produit par 10^5 cellules inhibant de 50 % la croissance cellulaire.
Pour la substance de l'exemple 5, ce poids est de 6 µg/10^5 cellules, pour celle de l'exemple 7, il est de 4 µg/10^5 cellules.

facteurs de coagulation = experiment: Activity on coagulation factors: thrombo-elastography on blood samples (terms r and k)
Text: L'étude est faite par thrombo-élastographie sur des échantillons sanguins auxquels sont ajoutées des quantités dosées des substances actives selon l'invention.
La mesure des termes r (temps d'apparition de la fibrine pendant lequel la viscosité ne varie pas) et k (temps d'accroissement de la viscosité jusqu'à une valeur donnée) montre, pour les échantillons traités à l'aide de la substance de l'exemple 7, une augmentation de 32 % pour 10/ug/ml et de 45 % pour 100/ug/ml.

[2] = tested on: ulcères provoqués par immobilisation; experiment: Antiulcer activity: restraint (immobilisation) ulcer in rats; assay type: in vivo; conditions: rat, 10 mg/kg i.p., compared with controls
Description: Elle est déterminée sur les ulcères provoqués par immobilisation chez le rat. La méthode de mesure est celle décrite par G. Narcisse (Thérapie, 1972, 27, 705). La substance est administrée par voie intrapéritonéale, à raison de 10 mg/kg.
Par comparaison avec des témoins, le pourcentage de protection, dans le cas du produit de l'exemple 22, est de 61,3 %.

fibrillation = experiment: Antifibrillant activity: chloroform-induced cardiac fibrillation in mice; assay type: in vivo, souris; conditions: 100 mg/kg i.p., 15 min before chloroform exposure
Description: Pour ces essais, on utilise comme précédemment des lots de 10 souris auxquelles sont administrés, par voie intrapéritonéale, 0,5 ml d'une solution ou suspension de substance étudiée dans du soluté isotonique.
Les souris sont traitées suivant une méthode voisine de celle décrite par B. Vargaftig et J.L. Coignet (Eur. J. Pharmacol., 1969, 6, 49). Selon cette méthode, les souris sont soumises à une atmosphère chargée d'une quantité déterminée de chloroforme. Lorsque les mouvements respiratoires cessent, le thorax est ouvert et le coeur examiné pour l'observation des tremblements superficiels très rapides. La fibrillation est positive lorsque ces mouvements sont observés pendant plus de 5 secondes.
La substance étudiée est administrée à raison de 100 mg/kg 15 minutes avant l'exposition au chloroforme.
La protection observée pour les substances des exemples 22 et 27 est d'environ 30 %.

vomissements = experiment: Antiemetic activity: apomorphine-induced vomiting in dogs; assay type: in vivo, chiens Beagle; conditions: 1 mg/kg intramuscular, 30 min before apomorphine 0,1 mg/kg s.c., vomiting counted for the next half hour
Description: Les essais sont effectués sur des chiens Beagle adultes de 8 à 12 kg, qui sont mis à jeun pendant 24 heures.
Chaque animal est son propre témoin, un essai sans protection étant réalisé 8 jours avant l'essai proprement dit en présence de la substance étudiée.
Les substances étudiées sont administrées dans du soluté isotonique à raison de 1 mg/kg et par voie intramusculaire. 30 minutes après, on injecte l'apomorphine par voie sous-cutanée, à raison de 0,1 mg/kg., et l'on dénombre les vomissements dans la demi-heure suivante.
Dans ces conditions, on a observé, pour les substances des exemples 22, 24, 26 et 27, une réduction du nombre de vomissements qui est respectivement de 50,8 %, 28,2 %, 44,2 %, 47,6 %.

SMILES	poids de produit par 10^5 cellules inhibant de 50 % la croissance cellulaire [1] [µg/10^5 cellules]	protection (fibrillation) (fibrillation) [%]	réduction du nombre de vomissements (vomissements)	further results
COc1ccccc1S(=O)(=O)CCCl [Exemple 5]	6			
COc1ccc(Cl)cc1S(=O)(=O)CCCl [Exemple 7]	4			augmentation des termes r et k (facteurs de coagulation; 10/ug/ml added to blood samples): 32%; augmentation des termes r et k (facteurs de coagulation; 100/ug/ml added to blood samples): 45%
COc1ccc(Cl)cc1S(=O)(=O)CCN1CCOCC1 [Exemple 22]		~30	50,8%	pourcentage de protection [2]: 61,3%
COc1ccc(Cl)cc1S(=O)(=O)CCN1CCCCC1 [Exemple 24]			28,2%	
COc1ccc(Cl)cc1S(=O)(=O)CCCN1CCCC1 [Exemple 26]			44,2%	
COc1ccc(Cl)cc1S(=O)(=O)CCCN1CCCCC1 [Exemple 27]		~30	47,6%	
